From patent US20070292451A1, “Medical herb composition for promoting the growth of hair A mammal and the manufacturing method thereof” (Brion Research Institute of Taiwan, priority 2006, published 2007)

System: humans
Assay: Oral administration of the medical herb composition to human volunteers with hair shedding
Assay type: in vivo
Settings: Example 14: person
Source text: The administered dose is based on body weight. For dogs and cats, the dose was 1-1.5 g/5 kg/day. […] because dogs and cats have higher metabolism rate than humans. […] The forehead hairline moved forward after one month, and generally the hair became thick. […] The efficacy of the composition is clearly identified by comparing the photo taken at the 37th day after the first administration of the composition (FIG. 8(b)) to that taken at 5th day (FIG. 8(a)). […] The test was performed on a volunteer, a person ([…]). […] They were diagnosed to suffer from Male Pattern Baldness. […] The efficacy of the composition is clearly identified by comparing the photo taken after the administration of the composition for 1 month (FIG. 9(b)) to that taken before the administration of the composition (FIG. 9(a)). […] In addition, after continuous administration of the composition for 1 month, their eyesight was 150 degree less than that before the administration of the composition.

SMILES: CC(C)(C)NC(=O)[C@H]1CC[C@H]2[C@@H]3CC[C@H]4NC(=O)C=C[C@]4(C)[C@H]3CC[C@]12C [Finasteride]
- effect on Male Pattern Baldness (earlier treatment of the subject): the effect was poor
